Data published in patent publication US20230111853A1, “COMPOUNDS MODULATING PROTEIN RECRUITMENT AND/OR DEGRADATION” (Orionis Biosciences, Inc., priority 2019, published 2023).

What follows are compounds tested on IKZF1, ASS1 and SALL4 recruitment to CRBN (assay: Recruitment assessment: recruitment of any tested substrate from among IKZF1, ASS1 and SALL4). Settings: any tested substrate at any tested compound concentration.
Format: cell-based
Description: In this experimental set-up, cells were transfected with a construct encoding a CRBN-fusion protein and another one encoding a substrate-fusion protein. Test compound activity was assessed with increasing concentrations of test compounds (dose-response studies) to monitor the ability to promote CRBN-ligand-induced protein interaction.
Full size proteins were fused for each of the target proteins tested, except in the case of IKZF1 where isoform 7 was used. For the study, the following were used: IKZF1 recruitment: pSEL-CRBN+pMG1-IKZF1(isoform 7); ASS1 recruitment: pSEL-CRBN+pMG1-ASS1. SALL4 recruitment: pSEL-SALL4+pMG1-CRBN. […] Luciferase activity was measured 24 hours after test compound treatment using the Luciferase Assay System kit (PROMEGA, Madison, Wis.) with an Ensight plate reader (PERKIN ELMER LIFE SCIENCES, Waltham, Mass.). Data points depicted fold induction of the average luciferase activity of triplicate samples from EPO+test compound treated cells versus EPO only treated cells. Error bars represent standard deviations. Curves were fit using 4-parameter nonlinear regression in […] PRISM software.

Row | Compound | Recruitment Assessment
1 | Nc1cccc2c1CN(C1CNC(=O)NC1=O)C2=O (stereo not drawn) [C47928, 5-(4-amino-1-oxo-isoindolin-2-yl)hexahydropyrimidine-2,4-dione] | FALSE
2 | Nc1cccc2c1CN(C1CCCC(=O)NC1=O)C2=O (stereo not drawn) [C47932, 3-(4-amino-1-oxo-isoindolin-2-yl)azepane-2,7-dione] | TRUE
3 | Nc1cccc2c1CCN(C1CCC(=O)NC1=O)C2=O (stereo not drawn) [C47933, 3-(5-amino-1-oxo-3,4-dihydroisoquinolin-2-yl)piperidine-2,6-dione] | TRUE
4 | O=C(O)CNc1ccc2c(c1)C(=O)N(C1CCC(=O)NC1=O)C2 (stereo not drawn) [C47997, 2-[[2-(2,6-dioxo-3-piperidyl)-3-oxo-isoindolin-5-yl]amino]acetic acid] | FALSE
5 | N#Cc1cccc2c1C(=O)N(C1CCC(=O)NC1=O)C2 (stereo not drawn) [C48009, 2-(2,6-dioxo-3-piperidyl)-3-oxo-isoindoline-4-carbonitrile] | FALSE
6 | O=C1CCC(N2Cc3cccc(-c4ccccc4)c3C2=O)C(=O)N1 (stereo not drawn) [C48020, 3-(1-oxo-7-phenyl-isoindolin-2-yl)piperidine-2,6-dione] | FALSE
7 | O=C1N=CC(N2C(=O)c3ccccc3C2=O)C(=O)N1 (stereo not drawn) [C49278, 2-(2,6-dioxo-5H-pyrimidin-5-yl)isoindoline-1,3-dione] | FALSE
8 | CN(C)CC(=O)Nc1ccc2c(c1)C(=O)N(C1CCC(=O)NC1=O)C2 (stereo not drawn) [C49708, 2-(dimethylamino)-N-[2-(2,6-dioxo-3-piperidyl)-3-oxo-isoindolin-5-yl]acetamide] | FALSE
9 | O=C1CCC(N2C(=O)c3ccccc3C2C2=c3ccccc3=NC2)C(=O)N1 (stereo not drawn) [C49713, 3-[1-(2H-indol-3-yl)-3-oxo-isoindolin-2-yl]piperidine-2,6-dione] | FALSE
10 | O=C1CCC(N2C(=O)C3CC=CCC3C2=O)C(=O)N1 (stereo not drawn) [C51647, 2-(2,6-dioxo-3-piperidyl)-3a,4,7,7a-tetrahydroisoindole-1,3-dione] | FALSE
11 | O=C1CCC(Nc2ncccn2)C(=O)N1 (stereo not drawn) [C55468, 3-(pyrimidin-2-ylamino)piperidine-2,6-dione] | FALSE
12 | Nc1cccc2c1CN(C1CCS(=O)(=O)NC1=O)C2=O (stereo not drawn) [C55859, 4-(4-Amino-1-oxoisoindolin-2yl)-1,2-thiazinan-3-one 1,1-dioxide] | FALSE
13 | COC1c2ccccc2C(=O)N1C1CCC(=O)NC1=O (stereo not drawn) [C56572, 3-(1-methoxy-3-oxo-isoindolin-2-yl)piperidine-2,6-dione] | FALSE
14 | Cc1ccc(NC(=O)NCc2cc(C)c3c(c2)CN(C2CCC(=O)NC2=O)C3=O)cc1Cl (stereo not drawn) [C58181, 1-(3-chloro-4-methyl-phenyl)-3-[[2-(2,6-dioxo-3-piperidyl)-7-methyl-1-oxo-isoindolin-5-yl]methyl]urea] | TRUE
15 | O=C1CCC(N2Cn3c(cccc3=O)C2=O)C(=O)N1 (stereo not drawn) [C60651, 2-(2,6-dioxo-3-piperidyl)-3H-imidazo[1,5-a]pyridine-1,5-dione] | FALSE
16 | O=C1CCC(N2C(=O)C=C(c3ccccc3)C2=O)C(=O)N1 (stereo not drawn) [C64319, 3-(2,5-dioxo-3-phenyl-pyrrol-1-yl)piperidine-2,6-dione] | FALSE
17 | O=C1CCC(N2C(=O)C3=C(CCC3)C2=O)C(=O)N1 (stereo not drawn) [C64324, 2-(2,6-dioxo-3-piperidyl)-5,6-dihydro-4H-cyclopenta[c] pyrrole-1,3-dione] | FALSE
18 | O=C1CCC(N2C(=O)CC3(Cc4ccccc4C3)C2=O)C(=O)N1 (stereo not drawn) [C64329, 1′-(2,6-dioxo-3-piperidyl)spiro[indane-2,3′-pyrrolidine]-2′,5′-dione] | FALSE
19 | O=C1CCC(N2C(=O)CC(NC(=O)OCc3ccccc3)C2=O)C(=O)N1 (stereo not drawn) [C64344, benzyl N-[1-(2,6-dioxo-3-piperidyl)-2,5-dioxo-pyrrolidin-3-yl]carbamate] | FALSE
20 | O=C1CCC(N2C(=O)CC3(CCOCC3)C2=O)C(=O)N1 (stereo not drawn) [C64348, 2-(2,6-dioxo-3-piperidyl)-8-oxa-2-azaspiro[4.5]decane-1,3-dione] | FALSE
21 | CN1CCC2(CC1)CC(=O)N(C1CCC(=O)NC1=O)C2=O (stereo not drawn) [C64372, 2-(2,6-dioxo-3-piperidyl)-8-methyl-2,8-diazaspiro[4.5]decane-1,3-dione] | FALSE

Row | Compound | Recruitment Assessment
22 | Cc1nc(N(C)C)cc2c1C(=O)N(C1CCC(=O)NC1=O)C2=O (stereo not drawn) [C64376, 6-(dimethylamino)-2-(2,6-dioxo-3-piperidyl)-4-methyl-pyrrolo[3,4-c] pyridine-1,3-dione] | FALSE
23 | NCc1ccc2c(c1)C(=O)N(C1CCC(=O)NC1=O)C2 (stereo not drawn) [C66979, 3-[6-(aminomethyl)-1-oxo-isoindolin-2-yl]piperidine-2,6-dione] | FALSE
24 | Cc1cccc2c1C(=O)N(C1CCC(=O)NC1=O)S2(=O)=O (stereo not drawn) [C73349, 3-(4-methyl-1,1,3-trioxo-1,2-benzothiazol-2-yl)piperidine-2,6-dione] | FALSE
25 | COc1ccc(Br)c2c1C(=O)N(C1CCC(=O)NC1=O)C2 (stereo not drawn) [C74668, 3-(4-bromo-7-methoxy-1-oxo-isoindolin-2-yl)piperidine-2,6-dione] | FALSE
26 | Cc1cccc2c1S(=O)(=O)N(C1CCC(=O)NC1=O)C2=O (stereo not drawn) [C75688, 3-(7-methyl-1,1,3-trioxo-1,2-benzothiazol-2-yl)piperidine-2,6-dione] | FALSE
27 | Cl.NC1Cc2ccccc2C1=O (stereo not drawn) [C75987, 2-aminoindan-1-one; hydrochloride] | FALSE
28 | O=C1CCC(N2Cc3cc(Nc4ncnc5sccc45)ccc3C2=O)C(=O)N1 (stereo not drawn) [C80370, 3-[1-oxo-5-(thieno[2,3-d]pyrimidin-4-ylamino)isoindolin-2-yl] piperidine-2,6-dione] | FALSE
29 | O=C1CCC(N2Cc3cc(Nc4ncnc5ccccc45)ccc3C2=O)C(=O)N1 (stereo not drawn) [C80373, 3-[-oxo-5-(quinazolin-4-ylamino)isoindolin-2-yl]piperidine-2,6-dione] | TRUE
30 | Cn1ncc2c(Nc3ccc4c(c3)CN(C3CCC(=O)NC3=O)C4=O)ncnc21 (stereo not drawn) [C80374, 3-[5-[(1-methylpyrazolo[3,4-d]pyrimidin-4-yl)amino]-1-oxo-isoindolin-2-yl]piperidine-2,6-dione] | TRUE
31 | Nc1nccc(Nc2ccc3c(c2)CN(C2CCC(=O)NC2=O)C3=O)n1 (stereo not drawn) [C80375, 3-[5-[(2-aminopyrimidm-4-yl)amino]-1-oxo-isoindolin-2-yl] piperidine-2,6-dione] | FALSE
32 | Nc1nc(Nc2ccc3c(c2)CN(C2CCC(=O)NC2=O)C3=O)nc2sccc12 (stereo not drawn) [C80379, 3-[5-[(4-aminothieno[2,3-d]pyrimidin-2-yl)amino]-1-oxo-isoindolin-2-yl]piperidine-2,6-dione] | TRUE
33 | CC(=O)O.O=C1CCC(N2Cc3ccc(Nc4ncnc5ccccc45)cc3C2=O)C(=O)N1 (stereo not drawn) [C80382 acetic acid salt, acetic acid; 3-[1-oxo-6-(quinazolin-4-ylamino)isoindolin-2-yl]piperidine-2,6-dione] | FALSE
34 | Cn1ncc2c(Nc3ccc4c(c3)C(=O)N(C3CCC(=O)NC3=O)C4)ncnc21 (stereo not drawn) [C80383, 3-[6-[(1-methylpyrazolo[3,4-d]pyrimidin-4-yl)amino]-1-oxo-isoindolin-2-yl]piperidine-2,6-dione] | FALSE
35 | Cc1cc(Nc2ccc3c(c2)C(=O)N(C2CCC(=O)NC2=O)C3)ncn1 (stereo not drawn) [C80384, 3-[6-[(6-methylpyrimidin-4-yl)amino]-1-oxo-isoindolin-2-yl] piperidine-2,6-dione] | FALSE
36 | O=C1CCC(N2Cc3ccc(Nc4[nH]cnc5nccc4-5)cc3C2=O)C(=O)N1 (stereo not drawn) [C80385, 3-[1-oxo-6-(3H-pyrrolo[2,3-d]pyrimidin-4-ylamino)isoindolin-2-yl] piperidine-2,6-dione] | FALSE
37 | O=C1CCC(N2Cc3ccc(Nc4cnc5ccccc5n4)cc3C2=O)C(=O)N1 (stereo not drawn) [C80386, 3-[1-oxo-6-(quinoxalin-2-ylamino)isoindolin-2-yl]piperidine-2,6-dione] | FALSE
38 | Cn1ccnc(Nc2ccc3c(c2)C(=O)N(C2CCC(=O)NC2=O)C3)c1=O (stereo not drawn) [C80387, 3-[6-[(4-methyl-3-oxo-pyrazin-2-yl)amino]-1-oxo-isoindolin-2-yl] piperidine-2,6-dione] | FALSE
39 | N#Cc1ccc(Nc2ccc3c(c2)C(=O)N(C2CCC(=O)NC2=O)C3)nn1 (stereo not drawn) [C80389, 6-[[2-(2,6-dioxo-3-piperidyl)-3-oxo-isoindolin-5-yl]amino]pyridazine-3-carbonitrile] | FALSE
40 | Cc1cc2[nH]cnc(Nc3ccc4c(c3)C(=O)N(C3CCC(=O)NC3=O)C4)c-2n1 (stereo not drawn) [C80390, 3-[6-[(6-methylpyrrolo[3,2-d]pyrimidin-4-yl)ammo]-1-oxo-isoindolin-2-yl]piperidine-2,6-dione] | TRUE
41 | O=C1CCC(N2Cc3ccc(NC(=O)c4ccc5ccccc5n4)cc3C2=O)C(=O)N1 (stereo not drawn) [C80392, N-[2-(2,6-dioxo-3-piperidyl)-3-oxo-isoindolin-5-yl]quinoline-2-carboxamide] | FALSE
42 | O=C1CCC(N2Cc3ccc(NC(=O)c4ccc5cnccc5n4)cc3C2=O)C(=O)N1 (stereo not drawn) [C80393, N-[2-(2,6-dioxo-3-piperidyl)-3-oxo-isoindolin-5-yl]-1,6-naphthyridine-2-carboxamide] | FALSE
